Patent US20070184490A1, “Neuronal nicotinic receptor ligands and their use” (priority 2006, published 2007)

Key:
[1] = target: T1, α4β2 neuronal nicotinic receptor subtype (Rattus norvegicus, UniProt P09483+P12390); assay: [3H]-cytisine binding assay, rat brain membrane preparation; conditions: [3H]-cytisine binding site; read-out: binding affinity Ki
T1 construct: Membrane enriched fractions from rat brain minus cerebellum; tissue ABS Inc., Wilmington, DE; host or cells: rat brain minus cerebellum, membrane enriched fractions
Procedure: The method can be accomplished under any suitable binding conditions. […] IC50 and Ki values can be determined from data obtained in the [^3H]-cytisine binding assay.
Binding conditions were modified from the procedures described in Pabreza L A, Dhawan, S, Kellar K J, [^3H]-Cytisine Binding to Nicotinic Cholinergic Receptors in Brain, Mol. Pharm. 39: 9-12, 1991. Membrane enriched fractions from rat brain minus cerebellum (ABS Inc., Wilmington, DE) were slowly thawed at 4° C., washed and resuspended in 30 volumes of BSS-Tris buffer (120 mM NaCl/5 mM KCI/2 mM CaCl2/2 mM MgCl2/50 mM Tris-Cl, pH 7.4, 4° C.). Samples containing 100-200 μg of protein and 0.75 nM [^3H]-cytisine (30 Ci/mmol; Perkin Elmer/NEN Life Science Products, Boston, MA) were incubated in a final volume of 500 μL for 75 minutes at 4° C. Seven log-dilution concentrations of each compound were tested in duplicate. Non-specific binding was determined in the presence of 10 μM (−)-nicotine. Bound radioactivity was isolated by vacuum filtration onto prewetted glass fiber filter plates (Millipore, Bedford, MA) using a 96-well filtration apparatus (Packard Instruments, Meriden, CT) and were then rapidly rinsed with 2 mL of ice-cold BSS buffer (120 mM NaCl/5 mM KCl/2 mM CaCl2/2 mM MgCl2). Packard MicroScint-20® scintillation cocktail (40 μL) was added to each well and radioactivity determined using a Packard TopCount® instrument. The IC50 values were determined by nonlinear regression in Microsoft Excel® software. Ki values were calculated from the IC50s using the Cheng-Prusoff equation, where Ki=IC50/1+[Ligand]/KD].

adults with ADHD = conditions: transdermal, 32 adults; cited from earlier work

T1 sequence (P09483 31-630): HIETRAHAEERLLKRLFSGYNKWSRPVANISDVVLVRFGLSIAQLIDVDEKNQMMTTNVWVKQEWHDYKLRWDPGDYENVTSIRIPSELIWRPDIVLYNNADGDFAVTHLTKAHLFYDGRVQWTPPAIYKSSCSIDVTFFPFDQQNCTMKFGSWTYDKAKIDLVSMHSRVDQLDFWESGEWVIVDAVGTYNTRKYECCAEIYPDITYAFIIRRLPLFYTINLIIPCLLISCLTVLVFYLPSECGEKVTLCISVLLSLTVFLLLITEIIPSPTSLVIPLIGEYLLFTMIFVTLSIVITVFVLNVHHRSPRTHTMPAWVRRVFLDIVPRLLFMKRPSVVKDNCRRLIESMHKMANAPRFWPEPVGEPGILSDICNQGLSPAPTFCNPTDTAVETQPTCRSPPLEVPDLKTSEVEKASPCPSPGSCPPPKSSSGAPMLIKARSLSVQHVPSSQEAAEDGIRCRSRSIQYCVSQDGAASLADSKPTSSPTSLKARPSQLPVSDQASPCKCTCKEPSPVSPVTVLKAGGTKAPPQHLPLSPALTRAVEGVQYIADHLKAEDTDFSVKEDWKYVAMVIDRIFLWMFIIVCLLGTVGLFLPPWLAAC
T1 sequence (P12390 25-500): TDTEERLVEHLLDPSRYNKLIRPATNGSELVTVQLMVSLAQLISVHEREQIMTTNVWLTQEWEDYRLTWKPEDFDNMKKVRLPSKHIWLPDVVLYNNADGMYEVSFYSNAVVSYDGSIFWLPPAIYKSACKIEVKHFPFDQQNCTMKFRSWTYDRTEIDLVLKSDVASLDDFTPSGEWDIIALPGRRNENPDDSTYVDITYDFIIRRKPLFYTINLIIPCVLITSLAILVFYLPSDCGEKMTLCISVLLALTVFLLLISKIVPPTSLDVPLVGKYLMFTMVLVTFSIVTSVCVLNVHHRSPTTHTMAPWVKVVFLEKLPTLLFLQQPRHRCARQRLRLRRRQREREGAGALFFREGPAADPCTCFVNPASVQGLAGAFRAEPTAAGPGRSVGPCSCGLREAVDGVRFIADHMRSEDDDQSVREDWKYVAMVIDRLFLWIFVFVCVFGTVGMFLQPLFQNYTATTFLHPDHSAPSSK

## c1ccc2ncc(N3CC4CNCC4C3)cc2c1 (stereo not shown)
[1]
  Ki: 1.5 nM

## Clc1ccc(-c2cc(OC[C@@H]3CCCN3)cnc2Cl)cc1
[1]
  Ki: 0.04 nM

## Cc1cc([C@@H]2CCCN2C)on1 [ABT-418]
Adults with ADHD
  efficacy in treating ADHD: effective in treating ADHD

## c1cncc(N2CC[C@@H]3CNC[C@@H]32)c1 [(R,R)-1-(pyridin-3-yl)-octahydro-pyrrolo[3,4-b]pyrrole]
[1]
  Ki: 8.8 nM
